{
  "source": "patent US8377991B2",
  "about": "“Trans-clomiphene for metabolic syndrome” (priority 2007, dated 2013)",
  "key": {"total serum testosterone": {"system": "total serum testosterone", "assay": "Serum testosterone in male baboons given Clomid, Enclomid or Zuclomid", "type": "in vivo", "details": "for effect on total serum testosterone: 1.5 mg/kg for 12 days, vs baseline or day 0", "text": "There were significant increases in total serum testosterone in the group receiving Enclomid. There were no differences among groups in the baseline period or at day 0. There were also no differences among the three groups 7 days after treatment (the washout period). However, Enclomid produced higher levels of testosterone compared to Clomid and Zuclomid on day 6 (p=0.03 and p=0.00002 respectively) and compared to Zuclomid on day 12 (p=0.047). […] Enclomid was clearly better and more consistent than Clomid itself and Zuclomid was ineffective."}, "[1]": {"details": "in vivo", "method": "Adult, male, Baboons were given 1.5 mg/kg of Clomid (clomiphene citrate), Enclomid (trans-Clomiphene) or Zuclomid (cis-clomiphene) for 12 consecutive days. The samples analyzed were sera taken on the day of first treatment before being given test article (day 0), after 12 days of treatment (day 12) and 7 days after the last treatment (end or wash-out)."}, "serum LH and FSH": {"system": "serum LH and FSH", "details": "hypogonadal male subjects, two week treatment", "method": "(§1) A placebo controlled challenge study was conducted at the Advanced Biological Research, Inc. (ABR) Clinical Research Center in Hackensack, N.J. to compare orally administered Androxal™ (trans-clomiphene) to Androgel® in hypogonadal men.\n(§2) Half of the men in each of the Androxal™ and placebo arms were randomized into cohorts that underwent in-clinic sessions on days 1 and 14 to determine pharmacokinetic parameters for Androxal™ as well as cyclical changes in testosterone. The placebo and Androxal™ doses were administered in a double blind fashion. The Androgel® cream was administered in an open label fashion. Half of the Androgel® patients underwent in-clinic sessions similar to the other patients in the study. Following the two week drug exposure, patients were followed for an additional seven to ten days to determine the status of their testosterone levels."}, "[2]": {"assay": "Androxal vs Androgel study: other clinical chemistry (DHT/TT, triglycerides) and side effects", "type": "in vivo", "details": "hypogonadal men, after two weeks of therapy; non-dose dependent"}, "total testosterone": {"system": "total testosterone", "details": "hypogonadal men; 50 mg dose", "method": "as §1, §2"}, "serum LH, FSH, PRL": {"system": "serum LH, FSH, PRL", "assay": "Body weight and serum LH, FSH, PRL in male baboons", "type": "in vivo", "details": "during the study", "text": "There were no changes in serum LH or FSH. […] There was also no change in body weight during the 12 day study."}, "fasting glucose levels": {"system": "fasting glucose levels", "details": "patients with BMI>26; 50 mg dose; at the 3 and 4.5 month periods", "method": "A placebo controlled study was conducted to determine the effects of orally administered Androxal™ (trans-clomiphene) and Androgel® on blood glucose levels.\nThe study enrolled hypogonadal men (testosterone less than 300 ng/dl) with a broad range of body mass indices (BMI). […] The placebo and Androxal™ doses were administered in a double blind fashion. The Androgel® cream was administered in an open label fashion. Fasting glucose levels were monitored in the patients immediately prior to treatment (baseline) and at regular intervals during the study."}},
  "note": "Structures can show the parent of a compound that is named as a salt.",
  "data": [
    {"compound": "CCN(CC)CCOc1ccc(C(=C(Cl)c2ccccc2)c2ccccc2)cc1", "note": "[Clomid, clomiphene citrate]", "values": [
      {"measurement": "effect on total serum testosterone", "setting": "total serum testosterone", "value": "more variable total testosterone levels on day 6 and later"},
      {"measurement": "ALT/SGPT", "setting": "[1]", "value": "out of range low at the end of the study"},
      {"measurement": "BUN and BUN/creatinine", "setting": "[1]", "value": "altered during the study"},
      {"measurement": "serum carbon dioxide", "setting": "[1]", "value": "higher than reference values on day 12"},
      {"measurement": "increase in serum glucose", "setting": "[1]; 1.5 mg/kg", "value": "within the normal range"}
    ]},
    {"compound": "CCN(CC)CCOc1ccc(/C(=C(\\Cl)c2ccccc2)c2ccccc2)cc1", "note": "[Enclomid, trans-clomiphene]", "values": [
      {"measurement": "serum levels of FSH", "setting": "serum LH and FSH", "value": "boosts serum FSH"},
      {"measurement": "reduction in triglycerides, average decrease", "setting": "[2]", "value": 19.1, "unit": "%"},
      {"measurement": "mean total testosterone after 15 days", "setting": "total testosterone", "value": "589 ± 172", "unit": "ng/dL"},
      {"measurement": "serum prolactin (PRL)", "setting": "serum LH, FSH, PRL", "value": "decrease in serum prolactin (PRL)"},
      {"measurement": "effect on total serum testosterone", "setting": "total serum testosterone", "value": "significantly and statistically raised total serum testosterone on days 6 and 12"},
      {"measurement": "total serum testosterone after cessation of treatment", "setting": "total serum testosterone; day 12 to day 18 (washout)", "value": "significant drop in the level of total serum testosterone between day 12 and day 18"},
      {"measurement": "BUN and BUN/creatinine", "setting": "[1]", "value": "altered during the study"},
      {"measurement": "percent of granulocytes in the blood", "setting": "[1]", "value": "strong effect of Enclomid on lowering the percent of granulocytes"},
      {"measurement": "platelet count", "setting": "[1]", "value": "pushed the platelet count to its normal male level"},
      {"measurement": "serum alkaline phosphatase (ALP)", "setting": "[1]", "value": "decreased in value"},
      {"measurement": "counts of eosinophiles", "setting": "[1]; 1.5 mg/kg", "value": "raising the counts of lymphocytes and eosinophiles"},
      {"measurement": "effects on the red blood cell population", "setting": "[1]; 1.5 mg/kg", "value": "substantive effects on the red blood cell population"},
      {"measurement": "increase in serum glucose", "setting": "[1]; 1.5 mg/kg", "value": "no increases with treatment"},
      {"measurement": "reduction in serum glucose from baseline", "setting": "fasting glucose levels", "value": "~24", "unit": "mg/dL"}
    ]},
    {"compound": "CCN(CC)CCOc1ccc(/C(=C(/Cl)c2ccccc2)c2ccccc2)cc1", "note": "[Zuclomid, cis-clomiphene]", "values": [
      {"measurement": "serum alkaline phosphatase (ALP)", "setting": "[1]", "value": "not elevated"},
      {"measurement": "serum carbon dioxide", "setting": "[1]", "value": "higher than reference values on day 12"},
      {"measurement": "effects on the red blood cell population", "setting": "[1]; 1.5 mg/kg", "value": "substantive effects on the red blood cell population"},
      {"measurement": "increase in serum glucose", "setting": "[1]; 1.5 mg/kg", "value": "within the normal range"}
    ]}
  ]
}
